PubChem BioAssay (NCI)
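Cells were grown in 96-well plates and exposed to each compound for 48 hours at five concentrations; endpoints were interpolated linearly between bracketing concentrations, or set to the highest concentration if not reached. GI50 is the concentration that inhibits growth by half. At the TGI there is no net growth.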

How the values were obtained:
Assay in all cases: NCI anticancer screen, dose series, 48 h; in the data active = GI50 below about 0.43 µM; inactive = the rest
[1] = test system: A498 renal
[2] = test system: 786-0 renal
[3] = test system: DU-145 prostate
[4] = test system: CAKI-1 renal
[5] = test system: SNB-19 CNS
[6] = test system: LOX IMVI melanoma
[7] = test system: MALME-3M melanoma
[8] = test system: NCI-H522 lung
[9] = test system: SK-MEL-2 melanoma
[10] = test system: HOP-62 NSCLC
[11] = test system: NCI-H460 lung
[12] = test system: IGROV1 ovarian
[13] = test system: COLO 205 colon
[14] = test system: OVCAR-4 ovarian
[15] = test system: SK-MEL-28 melanoma
[16] = test system: UACC-62 melanoma
[17] = test system: SR leukemia
[18] = test system: NCI/ADR-RES ovarian
[19] = test system: HCC-2998 colon
[20] = test system: TK-10 renal
[21] = test system: MCF7 breast
[22] = test system: ACHN renal
[23] = test system: PC-3 prostate
[24] = test system: HCT-15 colon
[25] = test system: SK-OV-3 ovarian
[26] = test system: EKVX NSCLC
[27] = test system: OVCAR-5 ovarian
[28] = test system: UACC-257 melanoma
[29] = test system: HOP-92 NSCLC
[30] = test system: SF-268 CNS
[31] = test system: SK-MEL-5 melanoma
[32] = test system: MOLT-4 leukemia
[33] = test system: M14 melanoma
[34] = test system: NCI-H226 lung
[35] = test system: SN12C renal
[36] = test system: SF-539 CNS
[37] = test system: HCT-116 colon
[38] = test system: HS 578T breast
[39] = test system: T-47D breast
[40] = test system: UO-31 renal
[41] = test system: OVCAR-8 ovarian
[42] = test system: KM12 colon
[43] = test system: SW-620 colon
[44] = test system: A549 NSCLC
[45] = test system: RXF 393 renal
[46] = test system: BT-549 breast
[47] = test system: NCI-H23 lung
[48] = test system: SF-295 CNS
[49] = test system: RPMI-8226 leukemia
[50] = test system: K-562 leukemia
[51] = test system: SNB-75 CNS
[52] = test system: MDA-MB-435
[53] = test system: CCRF-CEM leukemia
[54] = test system: OVCAR-3 ovarian
[55] = test system: MDA-MB-231 breast
[56] = test system: HL-60(TB) leukemia

Cc1nn(CNc2ccccc2C(F)(F)F)c(=S)n1/N=C/c1cccc2cccnc12
> 100 µM: TGI [1] | TGI [2] | TGI [3] | TGI [4] | TGI [5] | TGI [6] | TGI [7] | TGI [8] | TGI [9] | TGI [10] | TGI [11] | TGI [12] | TGI [13] | TGI [14] | TGI [15] | TGI [16] | TGI [18] | TGI [19] | TGI [20] | TGI [21] | TGI [22] | TGI [23] | TGI [24] | TGI [25] | TGI [26] | TGI [27] | TGI [28] | TGI [29] | TGI [30] | TGI [31] | TGI [32] | TGI [33] | TGI [34] | TGI [36] | TGI [37] | TGI [38] | TGI [39] | TGI [40] | TGI [41] | TGI [42] | TGI [43] | TGI [44] | TGI [45] | TGI [46] | TGI [47] | TGI [48] | TGI [49] | TGI [50] | TGI [51] | TGI [53] | TGI [54] | TGI [56]
55 µM: TGI [52]
67.6 µM: TGI [17]
91.7 µM: TGI [55]
inactive: GI50 [1] > 100 µM | GI50 [2] > 100 µM | GI50 [3] > 100 µM | GI50 [4] > 100 µM | GI50 [5] > 100 µM | GI50 [6] 34.7 µM | GI50 [7] > 100 µM | GI50 [8] > 100 µM | GI50 [9] > 100 µM | GI50 [10] > 100 µM | GI50 [11] > 100 µM | GI50 [12] 52.3 µM | GI50 [13] > 100 µM | GI50 [14] 44.3 µM | GI50 [15] > 100 µM | GI50 [16] 33.8 µM | GI50 [17] 20.2 µM | GI50 [18] 35.3 µM | GI50 [19] > 100 µM | GI50 [20] > 100 µM | GI50 [21] 54.9 µM | GI50 [22] 95.3 µM | GI50 [23] 79.1 µM | GI50 [24] 24.3 µM | GI50 [25] > 100 µM | GI50 [26] > 100 µM | GI50 [27] > 100 µM | GI50 [28] > 100 µM | GI50 [29] 74.7 µM | GI50 [30] 32.5 µM | GI50 [31] > 100 µM | GI50 [32] 41.6 µM | GI50 [33] 57.9 µM | GI50 [34] 56.2 µM | GI50 [35] 19.9 µM | GI50 [36] > 100 µM | GI50 [37] 44.6 µM | GI50 [38] > 100 µM | GI50 [39] > 100 µM | GI50 [40] > 100 µM | GI50 [41] > 100 µM | GI50 [42] 43.7 µM | GI50 [43] 65.8 µM | GI50 [44] > 100 µM | GI50 [45] > 100 µM | GI50 [46] > 100 µM | GI50 [47] > 100 µM | GI50 [48] > 100 µM | GI50 [49] 28.8 µM | GI50 [50] 35.8 µM | GI50 [51] 27.4 µM | GI50 [52] 22.7 µM | GI50 [53] 18.9 µM | GI50 [54] > 100 µM | GI50 [55] 23.4 µM | GI50 [56] 40.6 µM
72.7 µM: TGI [35]
